For this assay, the system named is SD rats. The experiment in a line: Feces excretion time and evaluation of efficiency (barium-containing diet, oral administration). Type of assay: in vivo, rat. The conditions noted are these: for Feces excretion time (min) @ volume (mg/kg): observed 10 hours. As for the experimental part: Eight-week-old SD rats were purchased and allowed to adapt to breeding conditions under 12-hour illumination at 24° C. for 7 days. The rats were made to fast for 16 hours before the experimental day, and orally administered on the experimental day with a vehicle (0.5% methylcellulose) and a test material, […], respectively. Thirty minutes after the administration, the rats fed with 3 g of a barium-containing diet were placed into a metabolism cage and observed to record the time required for the barium to be excreted as feces in each rat after being passed through the intestines for 10 hours. Additionally, the percentage of rats that excreted barium-containing feces within 10 hours were calculated, and the results are shown in Table 1 below.

Consider `CCCCC1(CCCC)CN(c2ccccc2)c2cc(SC)c(CNC(=O)CS(=O)(=O)O)cc2S(=O)(=O)C1` [Example 18, 2-(((3,3-dibutyl-7-methylthio-1,1-dioxido-5-phenyl-2,3,4,5-tetrahydrobenzo[b][1,4]thiazepine-8-yl)methyl)amino)-2-oxoethanesulfonic acid], for which, where the note is “1 mg/kg”, the “Percentage of subjects excreting feces within 10 hours (%)” value (from here on “Percentage … (%)”) is on record as “B @ 1 (B: 50-75%)” and the “Feces excretion time (min) @ volume (mg/kg)” value (shortened to “Feces excretion time”) is on record as “B @ 1 (B: 401-500 min)”.

Turning to `CCCCC1(CCCC)CN(c2ccc(OC)cc2)c2cc(SC)c(CNCC(=O)O)cc2S(=O)(=O)C1` [Example 19, 2-(((3,3-dibutyl-5-(4-methoxyphenyl)-7-methylthio-1,1-dioxido-2,3,4,5-tetrahydrobenzo[b][1,4]thiazepine-8-yl)methyl)amino)acetic acid], the “Percentage … (%)” value by setting is: (1 mg/kg) “A @ 1 (A: 76-100%)”; (5 mg/kg) “A @ 5 (A: 76-100%)”. Further, the “Feces excretion time” value is “C @ 1 (C: 501-590 min)” (1 mg/kg) and “B @ 5 (B: 401-500 min)” (5 mg/kg).

For `CCCCC1(CCCC)CN(c2ccc(F)cc2)c2cc(SC)c(CNCC(=O)O)cc2S(=O)(=O)C1` [Example 22, 2-(((3,3-dibutyl-5-(4-fluorophenyl)-7-methylthio-1,1-dioxido-2,3,4,5-tetrahydrobenzo[b][1,4]thiazepine-8-yl)methyl)amino)acetic acid], the “Percentage … (%)” value is given as “A @ 0.1 (A: 76-100%)” (0.1 mg/kg), “A @ 1 (A: 76-100%)” (1 mg/kg) and “A @ 5 (A: 76-100%)” (5 mg/kg). Further, the “Feces excretion time” value is given as “B @ 0.1 (B: 401-500 min)” (0.1 mg/kg), “B @ 1 (B: 401-500 min)” (1 mg/kg) and “A @ 5 (A: 301-400 min)” (5 mg/kg).

Regarding `CCCCC1(CCCC)CN(c2ccc(OC)c(F)c2)c2cc(SC)c(CNCC(=O)O)cc2S(=O)(=O)C1` [Example 24, 2-(((3,3-dibutyl-5-(3-fluoro-4-methoxyphenyl)-7-methylthio-1,1-dioxido-2,3,4,5-tetrahydrobenzo[b][1,4]thiazepine-8-yl)methyl)amino)acetic acid], under “1 mg/kg”, the “Percentage … (%)” value is recorded as “A @ 1 (A: 76-100%)” and the “Feces excretion time” value is reported as “C @ 1 (C: 501-590 min)”. Moreover, where the note is “5 mg/kg”, the “Percentage … (%)” value is on record as “A @ 5 (A: 76-100%)” and the “Feces excretion time” value was “A @ 5 (A: 301-400 min)”.

Consider `CCCCC1(CCCC)CN(c2ccc(O)cc2)c2cc(SC)c(CNCC(=O)O)cc2S(=O)(=O)C1` [Example 20, 2-(((3,3-dibutyl-5-(4-hydroxyphenyl)-7-methylthio-1,1-dioxido-2,3,4,5-tetrahydrobenzo[b][1,4]thiazepine-8-yl)methyl)amino)acetic acid], for which the “Percentage … (%)” value (0.1 mg/kg) is given as “A @ 0.1 (A: 76-100%)”, the “Percentage … (%)” value (1 mg/kg) is “A @ 1 (A: 76-100%)” and the “Percentage … (%)” value (5 mg/kg) is on record as “A @ 5 (A: 76-100%)”. The “Feces excretion time” value is reported as “C @ 0.1 (C: 501-590 min)” (0.1 mg/kg), “B @ 1 (B: 401-500 min)” (1 mg/kg) and “A @ 5 (A: 301-400 min)” (5 mg/kg).

As to `CCCCC1(CCCC)CN(c2ccccc2)c2cc(SC)c(CNCC(=O)O)cc2S(=O)(=O)C1` [Example 1, 2-(((3,3-dibutyl-7-methylthio-1,1-dioxido-5-phenyl-2,3,4,5-tetrahydrobenzo[b][1,4]thiazepine-8-yl)methyl)amino)acetic acid], the “Percentage … (%)” value is, setting by setting: (0.1 mg/kg) “B @ 0.1 (B: 50-75%)”; (1 mg/kg) “A @ 1 (A: 76-100%)”; (5 mg/kg) “A @ 5 (A: 76-100%)”. Further, the “Feces excretion time” value is listed as “C @ 0.1 (C: 501-590 min)” (0.1 mg/kg), “B @ 1 (B: 401-500 min)” (1 mg/kg) and “A @ 5 (A: 301-400 min)” (5 mg/kg).

For the origin of these results see patent publication US9890129B2, “Aminoalkylbenzothiazepine derivatives and uses thereof” (CJ Healthcare Corporation, priority 2014, dated 2018).
